From patent publication EP4671240A1, “SALT CONTAINING AROMATIC RING DERIVATIVE ANTAGONIST, PREPARATION METHOD THEREFOR, AND APPLICATION THEREOF” (Jiangsu Hansoh Pharmaceutical Group Co., Ltd., priority 2023, dated 2024)
pIC50: −log10 of the molar value.

Tests used:
CYP450 2D6 = target: T1, CYP450 2D6 (Homo sapiens, UniProt P10635); assay: CYP enzyme single-point inhibition assay, 2D6; type: in vitro ADME; details: human liver microsomes, single-point method
T1 construct: Human liver microsome incubation system was used; from tissue; host or cells: human liver microsomes
Procedure: Human liver microsome incubation system was used, and the single-point method was used to quickly predict the inhibition on CYP450 enzyme subtypes (1A2, 2C19, 2D6, 3A4-M, and 3A4-T) by compounds.
For 2.5 mM NADPH, 4.165 mg of NADPH (reduced nicotinamide adenine dinucleotide phosphate) was weighed and 100 mM phosphate buffer was added to a final volume of 2 mL. For 0.25 mg/mL microsomes, 50 µL of 20 mg/mL microsomes was mixed with […] of 100 mM phosphate buffer evenly.
The test example compounds were weighed, diluted to 10 mM with DMSO, and then diluted to 100 µM with 100 mM phosphate buffer.
• 1. Liver microsomes (40 µL), substrate (10 µL), and test compound (10 µL) were added to a 96-well plate, and the mixture was pre-incubated for 3 min. • 2. NADPH (40 µL) was added. • 3. At 20 min, acetonitrile stop solution containing internal standard (300 µL) was added. • 4. The mixture was centrifuged and the sample was loaded.

ETA receptors = target: T2, ETA receptors (Homo sapiens, UniProt P25101); assay: effect on calcium current in cells stably expressing ETA receptors (HEK293-ETA, FLIPR, antagonist); type: cell-based; details: 11 concentration points 10 µM to 0.17 nM
T2 construct: host or cells: HEK293
T2 sequence (P25101 21-427): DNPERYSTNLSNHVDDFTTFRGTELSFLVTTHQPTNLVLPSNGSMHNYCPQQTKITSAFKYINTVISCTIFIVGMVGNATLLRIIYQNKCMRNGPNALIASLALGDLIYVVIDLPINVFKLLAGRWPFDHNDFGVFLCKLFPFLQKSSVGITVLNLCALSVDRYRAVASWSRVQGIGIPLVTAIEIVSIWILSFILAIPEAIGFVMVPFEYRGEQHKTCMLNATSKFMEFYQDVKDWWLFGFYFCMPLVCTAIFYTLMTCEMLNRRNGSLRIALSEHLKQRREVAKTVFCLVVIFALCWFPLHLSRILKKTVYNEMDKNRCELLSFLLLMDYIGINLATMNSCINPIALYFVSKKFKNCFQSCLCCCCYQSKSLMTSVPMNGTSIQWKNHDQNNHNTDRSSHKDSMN
Text: Test example 2. Determination of the effect of the compounds of the present invention on calcium current in cells stably expressing ETA receptors 1. Experimental objective: To test the antagonistic effect of compounds on HEK293-ETA cell activity 2. […] Experimental data processing method: FLIPR Tetra was used to read and collect the fluorescence signal value (RFU). The maximum RFU value was used to calculate the percent activation data based on the readings of the Low control (DMSO control) and High control (100 nM positive compound) experimental groups {% activation rate = (RFUsample - RFUlow control) / (RFUhigh control - RFUlow control)×100}. […]

T1 sequence (P10635 whole entry): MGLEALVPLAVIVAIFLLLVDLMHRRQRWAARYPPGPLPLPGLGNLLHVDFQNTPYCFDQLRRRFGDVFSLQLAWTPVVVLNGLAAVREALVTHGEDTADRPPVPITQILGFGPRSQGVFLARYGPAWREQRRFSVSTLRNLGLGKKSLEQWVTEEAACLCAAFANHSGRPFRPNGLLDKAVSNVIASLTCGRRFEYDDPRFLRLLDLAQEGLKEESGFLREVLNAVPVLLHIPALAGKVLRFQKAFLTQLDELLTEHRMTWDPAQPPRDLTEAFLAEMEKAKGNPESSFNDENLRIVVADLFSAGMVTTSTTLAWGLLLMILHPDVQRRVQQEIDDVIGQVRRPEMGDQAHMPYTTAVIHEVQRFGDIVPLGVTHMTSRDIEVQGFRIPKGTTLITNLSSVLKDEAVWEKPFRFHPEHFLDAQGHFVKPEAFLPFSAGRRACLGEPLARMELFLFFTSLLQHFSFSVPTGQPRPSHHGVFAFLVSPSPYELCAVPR

| Compound | pIC50 (CYP450 2D6) | pIC50 (ETA receptors) |
| --- | --- | --- |
| [2H]C([2H])(c1ccc(-c2ccccc2S(=O)(=O)Nc2noc(C)c2Cl)c(COCC)c1)N1C(=O)C2(CCCC2)N=C1CCCC [Example 2, 4'-((2-Butyl-4-oxo-1,3-diazaspiro[4.4]non-1-en-3-yl)methyl-d2)-N-(4-chloro-5-methylisoxazol-3-yl)-2'-(ethoxymethyl)-[1,1'-biphenyl]-2-sulfonamide] | < 4.00 | 7.82 |
| CCCCC1=NC2(CCCC2)C(=O)N1Cc1ccc(-c2ccccc2S(=O)(=O)Nc2noc(C)c2Cl)c(COCC)c1 [Example 8, 2-[4-[(2-Butyl-4-oxo-1,3-diazaspiro[4.4]non-1-en-3-yl)methyl]-2-(ethoxymethyl)phenyl]-N-(4-chloro-5-methyl-isoxazol-3-yl)benzenesulfonamide] | < 4.00 | 7.83 |
